These results are taken from patent publication US20220151982A1, “CANNABINOID COMPOSITIONS AND USE THEREOF” (priority 2019, published 2022).

Assay [1] deals with resistant pancreatic cancer cells (PANC-1). In kind it is cell-based. The conditions noted are these: 4 h exposure, XTT after 72 h. The protocol:
A resistant pancreatic cancer cells line (PANC-1) was exposed to fluorouracil (5-FU), Tetrahydrocannabinolic acid (THCa) and combination thereof. The cells were exposed to the treatment agents for 4 hours, after which the media was replaced. Cell survival/death levels were measured after 72 hours by XTT. The percent of cell survival was determined as the absorbance signal with subtracted background (media only) and normalized by mock. Each experimental combination was performed in quadruplicate/pentaplicate.
(In general: Formazan colour is commonly taken as a measure of viable cells.)

For assay [2], the system named is resistant ovarian cancer cells (NAR). In kind it is cell-based. The settings on record: 4 h exposure, XTT after 72 h. As for the experimental part:
(§1) A non-resistant ovarian cancer cells lines (OVCAR8) and a resistant ovarian cancer cells line (NAR) were exposed to various concentrations of Doxorubicin (Dox), Tetrahydrocannabinolic acid (THCa) and combinations thereof. The cells were exposed to the treatment agents for 4 hours, after which the media was replaced. Cell survival/death levels were measured after 72 hours by XTT. The percent of cell survival was determined as the absorbance signal with subtracted background (media only) and normalized by mock. Each experimental combination was performed in quadruplicate/pentaplicate.
(§2) A non-resistant ovarian cancer cells line (OVCAR8) and a resistant ovarian cancer cell line (NAR) were exposed to various concentrations of Doxorubicin (Dox), Cannabidiol (CBD) and combinations thereof. The cells were exposed to the treatment agents for 4 hours, after which the media was replaced. Cell survival/death levels were measured after 72 hours by XTT. The percent of cell survival was determined as the absorbance signal with subtracted background (media only) and normalized by mock. Each experimental combination was performed in quadruplicate/pentaplicate.
The resistant ovarian cancer cells line (NAR) was exposed to various concentrations of Taxol (Paclitaxel), Tetrahydrocannabinolic acid (THCa) and combinations thereof. The cells were exposed to the treatment agents for 4 hours, after which the media was replaced. Cell survival/death levels were measured after 72 hours by XTT. The percent of cell survival was determined as the absorbance signal with subtracted background (media only) and normalized by mock. Each experimental combination was performed in quadruplicate/pentaplicate.
The resistant ovarian cancer cells line (NAR) was exposed to various concentrations of Cisplatin, Tetrahydrocannabinolic acid (THCa) and combinations thereof. The cells were exposed to the treatment agents for 4 hours, after which the media was replaced. Cell survival/death levels were measured after 72 hours by XTT. The percent of cell survival was determined as the absorbance signal with subtracted background (media only) and normalized by mock. Each experimental combination was performed in quadruplicate/pentaplicate.

Another assay deals with NAR cell's efflux pumps. The assay is described as follows: Doxorubicin efflux into the media from pre-treated resistant cells. In kind it is cell-based. The conditions noted are these: NAR pre-treated with sub-lethal Doxorubicin; media with vs without cannabinoid, 5 minutes to 24 hours. As for the experimental part:
A resistant ovarian cancer cell line (NAR) was pre-treated with sub-lethal concentrations of Doxorubicin (Dox), and then incubated in media with and without THCa or CBD for time periods ranging from 5 minutes to 24 hours (a total of 12 time points were measured). The ability of the cells to efflux Dox into the media was measured and compared between the cells grown in the presence and absence of THCa (FIG. 8A) or CBD (FIG. 8B).

The subject of assay [3] is Methicillin-resistant Staphylococcus aureus (MRSA). Briefly: MRSA killing by CFU counting after 4 h incubation. The settings on record: for Percentage death of MRSA cells, Antibiotics alone: antibiotic at MIC value; for Percentage death of MRSA cells, Antibiotics + CBD (565 μM): antibiotic at MIC value + CBD 565 μM.
Assay [4] concerns resistant ovarian cancer cells (NAR). In kind it is cell-based. The settings on record: CBN 674 or 270 μM added to Dox.
The test system of assay [5] is non-resistant ovarian cancer cells (OVCAR8). The assay is described as follows: XTT cell survival/death, non-resistant ovarian cancer cells. The settings on record: Doxorubicin 30 μM alone, 4 h exposure, XTT after 72 h. It counts as cell-based. The protocol:
as §1, §2

Assay [6] deals with lung cancer resistant cells (NCI-H69/LX4). In kind it is cell-based. The settings on record: 4 h exposure, XTT after 72 h. The protocol:
A multi-drug resistant small cell lung cancer cells line (NCI-H69/LX4) was exposed to Vincristine, Tetrahydrocannabinolic acid (THCa) and combination thereof. The cells were exposed to the treatment agents for 4 hours, after which the media was replaced. Cell survival/death levels were measured after 72 hours by XTT. The percent of cell survival was determined as the absorbance signal with subtracted background (media only) and normalized by mock. Each experimental combination was performed in quadruplicate/pentaplicate.

Where “and” joins values, the source holds several entries; their conditions need not be identical. Identical values can stand only once. Like-named read-outs stand apart in the source and are kept apart here.

Take `O=c1[nH]cc(F)c(=O)[nH]1` [5-FU, fluorouracil]: the cell death in assay [1] (5-FU 2 μM alone) is reported as 14%.

As to `C=C(C)[C@@H]1CCC(C)=C[C@H]1c1c(O)cc(CCCCC)cc1O` [CBD, 2-[(6R)-3-Methyl-6-prop-1-en-2-yl-lcyclohex-2-envyl]-5pentylbenzene-1,3-diol], the cell death in assay [2] (CBD 283 μM + Doxorubicin 30 μM) stood at 35%; in assay [2] (CBD 565 μM + Doxorubicin 30 μM), 75%. For the same compound, in the assay with NAR cell's efflux pumps, the “decrease of Dox efflux levels” value is given as around 40%. Moreover, the “Percentage death of MRSA cells, CBD (565 μM) alone” value in assay [3] (Table 2, CBD 565 μM without antibiotic, 4 hours) was determined as 9%.

As for `CCCCCc1cc(O)c2c(c1)OC(C)(C)c1ccc(C)cc1-2` [CBN, Cannabinol], the “effect on Dox toxicity (enhancement of cell death)” value in assay [4] is “did not significantly enhance cell death”.

As for `O=C(N[C@H](CO)[C@H](O)c1ccc([N+](=O)[O-])cc1)C(Cl)Cl` [Chloramphenicol], the “Percentage death of MRSA cells, Antibiotics alone” value in assay [3] (Table 1, 4 hours) was determined as 12%. Besides, in assay [3] (Table 2, 4 hours), the “Percentage death of MRSA cells, Antibiotics + CBD (565 μM)” value is reported as 58% and the “Percentage death of MRSA cells, Antibiotics alone” value came to 12%.

For `O=C(O)c1cn(C2CC2)c2cc(N3CCNCC3)c(F)cc2c1=O` [Ciprofloxacin], in assay [3] (Table 1, 4 hours), the “Percentage death of MRSA cells, Antibiotics alone” value was 14%. In assay [3] (Table 2, 4 hours), the “Percentage death of MRSA cells, Antibiotics + CBD (565 μM)” value was 54% and the “Percentage death of MRSA cells, Antibiotics alone” value is reported as 14%.

On to `N.N.[Cl][Pt][Cl]` [Cisplatin], for which the cell death in assay [2] (Cisplatin 115 μM alone) worked out at 12%.

As for `COc1cccc2c1C(=O)c1c(O)c3c(c(O)c1C2=O)C[C@@](O)(C(=O)CO)C[C@@H]3O[C@H]1C[C@H](N)[C@H](O)[C@H](C)O1` [Doxorubicin], the cell death in assay [5] was 94%; in assay [2] (Doxorubicin 30 μM alone), 16% and 20%; in assay [2] (Doxorubicin 30 μM alone, listed as Dox), 20%.

On to `CO[C@H]1/C=C/O[C@@]2(C)Oc3c(C)c(O)c4c(O)c(c(/C=N/N5CCN(C)CC5)c(O)c4c3C2=O)NC(=O)/C(C)=C\C=C\[C@H](C)[C@H](O)[C@@H](C)[C@@H](O)[C@@H](C)[C@H](OC(C)=O)[C@@H]1C` [Rifampicin], for which the “Percentage death of MRSA cells, Antibiotics alone” value was found to be 17% in assay [3] (Table 1, 4 hours) and 17% in assay [3] (Table 2, 4 hours). Further, the “Percentage death of MRSA cells, Antibiotics + CBD (565 μM)” value turned out to be 73% in assay [3] (Table 2, 4 hours) and 73% in assay [3] (Table 2, 4 hours, listed as rifampicin).

In the case of `CCCCCc1cc2c(c(O)c1C(=O)O)[C@@H]1C=C(C)CC[C@H]1C(C)(C)O2` [THCa, tetrahydrocannabinolic acid], the cell death in assay [2] (THCa 86 μM + Doxorubicin 30 μM) is 64%; in assay [2] (THCa 172 μM + Doxorubicin 30 μM), 86%; in assay [2] (THCa 247 μM + Cisplatin 115 μM), 94%; in assay [2] (THCa 247 μM + Taxol 50 μM), 94%; in assay [2] (THCa 247 μM alone) it was 20% and 18%; in assay [1] (THCa 247 μM + 5-FU 2 μM), 77%. Besides, the figures for the cell death in assay [1] (THCa 247 μM alone), in assay [6] (THCa 247 μM + Vincristine 10 μM) and in assay [6] (THCa 247 μM alone) were 8%, 95% and 12%, respectively. Further, the “decrease of Dox efflux levels” value in the assay with NAR cell's efflux pumps is on record as around 50%. In addition, the “Percentage death of MRSA cells, THCa (88 μM) alone” value in assay [3] (Table 1, THCa 88 μM without antibiotic, 4 hours) is on record as 6%.

As to `CC(=O)O[C@H]1C(=O)[C@@]2(C)[C@H]([C@H](OC(=O)c3ccccc3)[C@]3(O)C[C@H](OC(=O)[C@H](O)[C@@H](NC(=O)c4ccccc4)c4ccccc4)C(C)=C1C3(C)C)[C@]1(OC(C)=O)CO[C@@H]1C[C@@H]2O` [Taxol, Paclitaxel], in assay [2] (Taxol 50 μM alone), the cell death is given as 23%.

`CN(C)[C@@H]1C(O)=C(C(N)=O)C(=O)[C@@]2(O)C(O)=C3C(=O)c4c(O)cccc4[C@@](C)(O)[C@H]3C[C@@H]12` [Tetracycline]: the “Percentage death of MRSA cells, Antibiotics alone” value amounted to 7% in assay [3] (Table 1, 4 hours) and 7% in assay [3] (Table 2, 4 hours). Further, the “Percentage death of MRSA cells, Antibiotics + CBD (565 μM)” value in assay [3] (Table 2, 4 hours) is 42%; in assay [3] (Table 2, 4 hours, listed as tetracycline), 42%.

On to `CN[C@H](CC(C)C)C(=O)N[C@H]1C(=O)N[C@@H](CC(N)=O)C(=O)N[C@H]2C(=O)N[C@H]3C(=O)N[C@H](C(=O)N[C@H](C(=O)O)c4cc(O)cc(O)c4-c4cc3ccc4O)[C@H](O)c3ccc(c(Cl)c3)Oc3cc2cc(c3O[C@@H]2O[C@H](CO)[C@@H](O)[C@H](O)[C@H]2O[C@H]2C[C@](C)(N)[C@H](O)[C@H](C)O2)Oc2ccc(cc2Cl)[C@H]1O` [Vancomycin], for which, in assay [3] (Table 1, 4 hours), the “Percentage death of MRSA cells, Antibiotics alone” value is 8%. Moreover, in assay [3] (Table 2, 4 hours), the “Percentage death of MRSA cells, Antibiotics + CBD (565 μM)” value was 61% and the “Percentage death of MRSA cells, Antibiotics alone” value is given as 8%.

Take `CC[C@]1(O)C[C@H]2CN(CCc3c([nH]c4ccccc34)[C@@](C(=O)OC)(c3cc4c(cc3OC)N(C=O)[C@H]3[C@@](O)(C(=O)OC)[C@H](OC(C)=O)[C@]5(CC)C=CCN6CC[C@]43[C@@H]65)C2)C1` [Vincristine]: the cell death in assay [6] (Vincristine 10 μM alone) amounted to 17%.

Turning to Gentamycin, the “Percentage death of MRSA cells, Antibiotics + THCa (88 μM)” value in assay [3] is given as 85%. Further, the “Percentage death of MRSA cells, Antibiotics alone” value in assay [3] (Table 1, 4 hours) came out at 15%. Further, in assay [3] (Table 2, 4 hours), the “Percentage death of MRSA cells, Antibiotics + CBD (565 μM)” value amounted to 58% and the “Percentage death of MRSA cells, Antibiotics alone” value stood at 15%.
